By EC50 is commonly meant the midpoint of the concentration-response curve.

The source of these data is US11365199B2, “Pyrazole compounds as modulators of FSHR and uses thereof” (Merck Patent GmbH, priority 2013, dated 2022).

For this assay, the target named is T1, FSHR (Homo sapiens, UniProt P23945).
T1 construct: expressed in transfected cells; host or cells: CHO (Cho-FSHR-LUC-1-1-43)
T1 sequence (P23945 18-695): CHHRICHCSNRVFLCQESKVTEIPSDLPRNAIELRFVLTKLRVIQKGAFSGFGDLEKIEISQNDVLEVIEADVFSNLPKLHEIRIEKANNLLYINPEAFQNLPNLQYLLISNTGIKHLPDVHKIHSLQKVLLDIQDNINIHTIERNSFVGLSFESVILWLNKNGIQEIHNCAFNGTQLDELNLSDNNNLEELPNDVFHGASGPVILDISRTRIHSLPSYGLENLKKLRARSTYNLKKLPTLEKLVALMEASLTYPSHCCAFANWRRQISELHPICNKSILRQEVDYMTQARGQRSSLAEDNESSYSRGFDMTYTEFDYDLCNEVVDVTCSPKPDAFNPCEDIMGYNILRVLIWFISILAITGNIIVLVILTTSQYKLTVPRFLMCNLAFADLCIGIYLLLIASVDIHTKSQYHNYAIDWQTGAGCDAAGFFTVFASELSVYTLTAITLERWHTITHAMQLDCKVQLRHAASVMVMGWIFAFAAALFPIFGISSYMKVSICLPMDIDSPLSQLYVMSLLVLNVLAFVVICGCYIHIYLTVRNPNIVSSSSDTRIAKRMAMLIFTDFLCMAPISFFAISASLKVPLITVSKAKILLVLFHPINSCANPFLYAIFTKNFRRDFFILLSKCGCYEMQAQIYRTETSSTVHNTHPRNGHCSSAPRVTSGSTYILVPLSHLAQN
The experiment in a line: EC50 of cyclic AMP production in CHO FSHR cells + EC20 FSH (Assay A). The note with it: CHO FSHR cells + EC20 FSH, cAMP HTRF; read-out: Assay A: EC50 of cyclic AMP production. It is filed as cell-based. Here is the method:
EC50 of Cyclic AMP Production in CHO FSHR Cells+EC20 FSH (Assay A)
2500 Cho-FSHR-LUC-1-1-43 cells were plated per well in 5 μl of phenol red free DMEM/F12+1% FBS. Cells were plated in 384 well, solid white low volume plates (Greiner 784075) by Multidrop. Cells were assayed by adding 100 μl of 2×EC20 FSH/IBMX in DMEM/F12+0.1% BSA) by Multidrop to 2 μl of test compound stamped in 384 well plates (compounds are diluted 1:50). The final FSH concentration was […], and the final IBMX concentration was 200 μM. The compound plate map was as follows: Column 1: 2 μl of DMSO; Column 2: 2 μl of DMSO; Columns 3-12 and 13-24: 2 μl of test compound, diluted 1:4 in 100% DMSO, or 2 μl of FSH, diluted 1:4 in DMEM/F12+0.1% BSA. The starting concentration for FSH was 50 nM (final concentration was 0.5 nM). Furthermore, Column 23 contained 2 μl of EC100 FSH reference (100×) (diluted in DMEM/F12+0.1% BSA) at a final concentration of 0.5 nM, and Column 24 contained 2 μl of 1 mM AS707664/2 reference compound 2. 5 μl of compound+EC20 FSH mixture were transferred to cell plates (1:2 dilution into 5 μl of cell media) The plates were incubated at 37° C. for 1 h. 10 μl of mixed HTRF (CisBio #62AM4PEC) reagents were added per well and incubated at room temperature for 1 h. The plates were read on Envision using the cAMP HTRF—low volume 384 well protocol. The readout was the calculated fluorescence ratio (665 nm/620 nm). Values given in percent (%) indicate the percental effect (response) at a certain concentration of agonist relative to the maximum response of the FSH standard.

In the case of `COc1cc2c(cc1C=C(C)C)-c1c(c(C(=O)N3CCC34COC4)nn1-c1ccsc1)CO2` [Compound 44, [7-Methoxy-8-(2-methyl-propenyl)-1-thiophen-3-yl-1,4-dihydro-chromeno[4,3-c]pyrazol-3-yl]-(6-oxa-1-aza-spiro[3.3]hept-1-yl)-methanone], the EC50 fell in the range of 100 to 1000 nM. In the case of `COc1cc2c(cc1OC(C)C)-c1c(c(C(=O)N(C)CCCN(C)C(=O)C3CCC3)nn1-c1ccsc1)CO2` [Compound 30], the EC50 was in the range of 100 to 1000 nM. On to `CNC(=O)C1CCCN(C(=O)c2nn(-c3ccsc3)c3c2COc2cc(OC)c(C=C(C)C)cc2-3)CC1` (stereo not shown) [Compound 42, 1-[7-Methoxy-8-(2-methyl-propenyl)-1-thiophen-3-yl-1,4-dihydro-chromeno[4,3-c]pyrazole-3-carbonyl]-azepane-4-carboxylic Acid Methylamide], for which the EC50 lay within 100 to 1000 nM. Consider `COc1cc2c(cc1-c1ccn(C)c1)-c1c(c(C(=O)N(C)C3COC3)nn1-c1ccsc1)CO2` [Compound 103, 7-Methoxy-8-(1-methyl-1H-pyrrol-3-yl)-1-thiophen-3-yl-1,4-dihydro-chromeno[4,3-c]pyrazole-3-carboxylic acid methyl-oxetan-3-yl-amide], for which the EC50 was in the range of 100 to 1000 nM. On to `[2H]C([2H])([2H])C(C(=O)c1nn(-c2ccsc2)c2c1COc1cc(OC)c(-c3ccn(C)n3)cc1-2)C1(C)CNC1` (stereo not shown) [Compound 193], for which the EC50 was greater than 5000 nM. The result for `CCOCn1cc(-c2cc3c(cc2OC)OCc2c(C(=O)N(C)C(C)(C)C)nn(-c4ccsc4)c2-3)nn1` [Compound 152, 8-(1-Ethoxymethyl-1H-[1,2,3]triazol-4-yl)-7-methoxy-1-thiophen-3-yl-1,4-dihydro-chromeno[4,3-c]pyrazole-3-carboxylic acid tert-butyl-methyl-amide] reads less than 100 nM; that for `COc1cc2c(cc1-c1c(C)noc1C)-c1c(c(C(=O)N(C)C(C)(C)C)nn1-c1ccsc1)CO2` [Compound 67, 8-(3,5-Dimethyl-isoxazol-4-yl)-7-methoxy-1-thiophen-3-yl-1,4-dihydro-chromeno[4,3-c]pyrazole-3-carboxylic acid tert-butyl-methyl-amide], less than 100 nM. For the compound `[2H]C([2H])([2H])O[C@@H]1CC[C@H](N(C(=O)c2nn(-c3ccsc3)c3c2COc2cc(OC)c(-c4ccn(C)c4)cc2-3)C([2H])([2H])[2H])C1` [Compound 178], the EC50 was 1000 to 5000 nM. In the case of `COc1cc2c(cc1-c1ccn(C)n1)-c1c(c(C(=O)NC3(C)COC3)nn1-c1ccsc1)CO2` [Compound 100, 7-Methoxy-8-(1-methyl-1H-pyrazol-3-yl)-1-thiophen-3-yl-1,4-dihydro-chromeno[4,3-c]pyrazole-3-carboxylic acid (3-methyl-oxetan-3-yl)-amide], the concentration giving a half-maximal response (EC50) was in the range of 100 to 1000 nM. On to `[2H]C([2H])([2H])N(CCN(C(=O)c1nn(-c2ccsc2)c2c1COc1cc(OC)c(C=C(C)C)cc1-2)C([2H])([2H])[2H])C(C)=O` [Compound 61], for which the half-maximal effective concentration (EC50) was less than 100 nM. `COc1cc2c(cc1-c1ccn(C)n1)-c1c(c(C(=O)N3CCN(C(=O)OC(C)(C)C)CC34CC4)nn1-c1ccsc1)CO2` [Compound 158, 4-[7-Methoxy-8-(1-methyl-1H-pyrazol-3-yl)-1-thiophen-3-yl-1,4-dihydro-chromeno[4,3-c]pyrazole-3-carbonyl]-4,7-diaza-spiro[2.5]octane-7-carboxylic acid tert-butyl ester]: the concentration for a half-maximal effect (EC50) was in the range of 1000 to 5000 nM. For the compound `COc1cc2c(cc1-c1sccc1C)-c1c(c(C(=O)N(C)C(C)(C)C)nn1-c1ccsc1)CO2` [Compound 88, 7-Methoxy-8-(3-methyl-thiophen-2-yl)-1-thiophen-3-yl-1,4-dihydro-chromeno[4,3-c]pyrazole-3-carboxylic acid tert-butyl-methyl-amide], the EC50 was less than 100 nM. The result for `COc1cc2c(cc1-c1sc(C)nc1C)-c1c(c(C(=O)N(C)C(C)(C)C)nn1-c1ccsc1)CO2` [Compound 53, 8-(2,4-Dimethyl-thiazol-5-yl)-7-methoxy-1-thiophen-3-yl-1,4-dihydro-chromeno[4,3-c]pyrazole-3-carboxylic acid tert-butyl-methyl-amide] reads less than 100 nM; that for `COc1cc2c(cc1-c1ccn(C)n1)-c1c(c(C(=O)N3CCNCC34CC4)nn1-c1ccsc1)CO2` [Compound 171, (4,7-Diaza-spiro[2.5]oct-4-yl)-[7-methoxy-8-(1-methyl-1H-pyrazol-3-yl)-1-thiophen-3-yl-1,4-dihydro-chromeno[4,3-c]pyrazol-3-yl]-methanone], 100 to 1000 nM; that for `COc1cc2c(cc1CC(C)C)-c1c(c(C(=O)NC3(CO)COC3)nn1-c1ccsc1)CO2` [Compound 141, 8-Isobutyl-7-methoxy-1-thiophen-3-yl-1,4-dihydro-chromeno[4,3-c]pyrazole-3-carboxylic acid (3-hydroxymethyl-oxetan-3-yl)-amide], 1000 to 5000 nM. In the case of `COc1cc2c(cc1-c1cc[nH]n1)-c1c(c(C(=O)N(C)C(C)(C)C)nn1-c1ccsc1)CO2` [Compound 65, 7-Methoxy-8-(1H-pyrazol-3-yl)-1-thiophen-3-yl-1,4-dihydro-chromeno[4,3-c]pyrazole-3-carboxylic acid tert-butyl-methyl-amide], the half-maximal effective concentration (EC50) was less than 100 nM. On to `COc1cc2c(cc1-c1ccnn1C)-c1c(c(C(=O)NC3(C)COC3)nn1-c1ccsc1)CO2` [Compound 109, 7-Methoxy-8-(2-methyl-2H-pyrazol-3-yl)-1-thiophen-3-yl-1,4-dihydro-chromeno[4,3-c]pyrazole-3-carboxylic acid (3-methyl-oxetan-3-yl)-amide], for which the EC50 is 100 to 1000 nM. On to `[2H]C([2H])([2H])OCC1(C)CCCN1C(=O)c1nn(-c2ccsc2)c2c1COc1cc(OC)c(C=C(C)C)cc1-2` (stereo not shown) [Compound 51], for which the EC50 is less than 100 nM. The result for `COc1cc2c(cc1-c1ccn(C)c1)-c1c(c(C(=O)O[C@H]3CC[C@H](N)C3)nn1-c1ccsc1)CO2` [Compound 181, 7-Methoxy-8-(1-methyl-1H-pyrrol-3-yl)-1-thiophen-3-yl-1,4-dihydro-chromeno[4,3-c]pyrazole-3-carboxylic Acid (1S,3S)-3-amino-cyclopentyl Ester] reads less than 100 nM; that for `COc1cc2c(cc1-c1ccsc1C)-c1c(c(C(=O)N(C)C(C)(C)C)nn1-c1ccsc1)CO2` [Compound 75], less than 100 nM. Regarding `COc1cc2c(cc1-c1cn[nH]c1)-c1c(c(C(=O)N3CCOCC3(C)C)nn1-c1ccsc1)CO2` [Compound 80, (3,3-Dimethyl-morpholin-4-yl)-[7-methoxy-8-(1H-pyrazol-4-yl)-1-thiophen-3-yl-1,4-dihydro-chromeno[4,3-c]pyrazol-3-yl]-methanone], the EC50 is less than 100 nM. The result for `COc1cc2c(cc1C=C(C)C)-c1c(c(C(=O)N3CCOCC3)nn1-c1ccsc1)CO2` [Compound 117, [7-Methoxy-8-(2-methyl-propenyl)-1-thiophen-3-yl-1,4-dihydro-chromeno[4,3-c]pyrazol-3-yl]-morpholin-4-yl-methanone] reads 100 to 1000 nM; that for `COc1cc2c(cc1-c1cnn(CCN3CCCC3)c1)-c1c(c(C(=O)N3CCOCC3(C)C)nn1-c1ccsc1)CO2` [Compound 206, (3,3-Dimethyl-morpholin-4-yl)-{7-methoxy-8-[1-(2-pyrrolidin-1-yl-ethyl)-1H-pyrazol-4-yl]-1-thiophen-3-yl-1,4-dihydro-chromeno[4,3-c]pyrazol-3-yl}-methanone], 100 to 1000 nM. For `[2H]C([2H])([2H])OC1CCN(C(=O)c2nn(-c3ccsc3)c3c2COc2cc(OC)c(C=C(C)C)cc2-3)C1` (stereo not shown) [Compound 49], the EC50 lay within 100 to 1000 nM.

For `COc1cc2c(cc1-c1cn(C)nc1C)-c1c(c(C(=O)N3CCOCC3(C)C)nn1-c1ccsc1)CO2` [Compound 123, (3,3-Dimethyl-morpholin-4-yl)-[8-(1,3-dimethyl-1H-pyrazol-4-yl)-7-methoxy-1-thiophen-3-yl-1,4-dihydro-chromeno[4,3-c]pyrazol-3-yl]-methanone], the EC50 was less than 100 nM.
